{"source": "BindingDB's records for doi:10.1016/j.bmcl.2007.01.077", "about": "(Yale University, 2007)", "key": {"[1]": {"target": "T1, Signal transducer and activator of transcription 1-alpha/beta (Homo sapiens, UniProt P42224)", "T1 sequence (P42224 whole entry)": "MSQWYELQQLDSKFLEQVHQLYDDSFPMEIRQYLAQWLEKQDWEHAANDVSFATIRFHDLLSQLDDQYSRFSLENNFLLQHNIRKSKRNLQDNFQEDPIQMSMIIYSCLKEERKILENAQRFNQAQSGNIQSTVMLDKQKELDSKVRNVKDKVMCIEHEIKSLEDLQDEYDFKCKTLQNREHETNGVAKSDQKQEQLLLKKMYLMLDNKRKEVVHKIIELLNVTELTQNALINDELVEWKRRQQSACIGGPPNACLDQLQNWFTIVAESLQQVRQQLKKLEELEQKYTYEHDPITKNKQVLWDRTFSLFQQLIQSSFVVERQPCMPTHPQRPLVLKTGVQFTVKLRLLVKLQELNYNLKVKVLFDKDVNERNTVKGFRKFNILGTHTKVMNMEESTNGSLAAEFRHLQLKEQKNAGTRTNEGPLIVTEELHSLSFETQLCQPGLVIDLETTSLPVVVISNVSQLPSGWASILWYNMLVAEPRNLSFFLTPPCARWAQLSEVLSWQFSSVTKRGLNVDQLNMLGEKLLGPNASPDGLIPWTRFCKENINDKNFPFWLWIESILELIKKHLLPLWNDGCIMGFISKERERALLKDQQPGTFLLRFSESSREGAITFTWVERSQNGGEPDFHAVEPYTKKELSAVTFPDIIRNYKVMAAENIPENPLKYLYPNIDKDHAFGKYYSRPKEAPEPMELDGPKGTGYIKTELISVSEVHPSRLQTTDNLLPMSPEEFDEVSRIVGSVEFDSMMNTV", "assay": "Electrophoretic Mobility Shift Assay (EMSA)", "settings": "pH 7.8; 22 °C", "protocol": "(§1) STAT proteins were expressed in Sf9 cells from a baculovirus encoding the recombinant protein. A nuclear extract of the Sf9 cells was incubated with 32P-labeled high affinity c-fos sis inducible element (hSIE) either alone or in the presence of inhibitor. After incubation, samples were electrophoresed on polyacrylamide gels. The gels were dried, exposed to a phosphorimager screen and scanned. IC50 values were derived from plots of spot intensity versus phosphopeptide concentration. The affinity of peptides to the SH2 domain is measured by the intensity of the radioactivity of the Stat-DNA complex band in the electrophoresis gel."}, "[2]": {"target": "Signal transducer and activator of transcription 3 (Mus musculus, UniProt P42227)", "sequence (P42227 whole entry)": "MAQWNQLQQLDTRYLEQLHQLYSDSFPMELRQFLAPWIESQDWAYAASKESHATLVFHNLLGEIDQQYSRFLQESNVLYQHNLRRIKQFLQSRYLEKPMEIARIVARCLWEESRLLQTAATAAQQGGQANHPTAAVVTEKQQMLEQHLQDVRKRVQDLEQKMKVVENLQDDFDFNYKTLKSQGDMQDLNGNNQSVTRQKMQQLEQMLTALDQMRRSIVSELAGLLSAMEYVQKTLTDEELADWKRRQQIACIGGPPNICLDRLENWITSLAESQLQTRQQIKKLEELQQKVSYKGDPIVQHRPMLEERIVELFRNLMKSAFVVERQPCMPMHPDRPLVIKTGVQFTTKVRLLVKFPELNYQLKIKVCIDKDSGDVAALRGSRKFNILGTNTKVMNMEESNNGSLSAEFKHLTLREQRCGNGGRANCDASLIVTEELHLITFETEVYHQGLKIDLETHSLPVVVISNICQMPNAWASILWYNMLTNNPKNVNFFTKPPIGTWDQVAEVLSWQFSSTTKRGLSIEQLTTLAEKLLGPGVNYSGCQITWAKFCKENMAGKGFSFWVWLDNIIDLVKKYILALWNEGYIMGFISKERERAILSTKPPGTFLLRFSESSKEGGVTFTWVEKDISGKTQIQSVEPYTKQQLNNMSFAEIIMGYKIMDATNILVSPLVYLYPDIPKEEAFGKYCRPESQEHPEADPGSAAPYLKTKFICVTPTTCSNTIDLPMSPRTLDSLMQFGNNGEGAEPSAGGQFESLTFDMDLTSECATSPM", "assay": "Electrophoretic Mobility Shift Assay (EMSA)", "settings": "pH 7.8; 22 °C", "protocol": "as §1"}}, "data": [{"smiles": "CC(C)C[C@H](NC(=O)[C@H](Cc1ccc(OP(=O)(O)O)cc1)NC(=O)c1ccc(C#N)cc1)C(=O)NC(C)C", "note": "[4-[(2S)-2-[(4-cyanophenyl)formamido]-2-{[(1S)-3-methyl-1-(propan-2-ylcarbamoyl)butyl]carbamoyl}ethyl]phenoxyphosphonic acid]", "values": [{"measurement": "IC50", "setting": "[1]", "result": 58, "unit": "µM"}, {"measurement": "IC50", "setting": "[2]", "result": 760, "unit": "µM"}]}]}
